Values joined by “and” are separate entries in the source; they are usually repeats but may differ in a detail not shown here. Identical values can stand only once.
Legend:
[1] = tested on: MCF-7 breast cancer cells; assay: MTT cytotoxicity assay; type: cell-based; conditions: for IC50: MCF-7 cells, MTT, 48 h, mean ± SD of three independent values; for fold higher potency than reference drug staurosporine against MCF-7: versus staurosporine
Method: The National Research Institute in Egypt donated the breast cancer (MCF-7) cells, which were collected and cultured in RPMI-1640 medium L-glutamine (Lonza Verviers SPRL, Verviers, Belgium, cat#12-604F). The 10% fetal bovine serum (FBS; Sigma-Aldrich, St. Louis, MO, USA) and 1% penicillin-streptomycin (Lonza, Belgium) were given to each of the two cell lines.
All cells were cultured, following routine tissue culture work, in 5% CO2 humidified at 37 °C. Cells were exposed to compounds at concentrations of 0.01, 0.1, 1, 10, and 100 μM on the second day of culturing. After 48 h, cell viability was evaluated using the MTT solution (Promega, Madison, WI, USA). MTT dye (20 μL) was placed into each well, and the plate was then incubated for three hours. Absorbance was subsequently measured at 570 nm using the ELISA microplate reader (BIO-RAD, model iMark, Tokyo, Japan), and the percentage of cell viability was calculated, compared to control, as (mean absorbance of tested compound)/(mean absorbance in control) × 100. Finally, IC50 values were found using the nonlinear dose–response sigmoidal curve in GraphPad Prism 7 [39].

PI3K-δ = target: T1, PI3K-δ (Homo sapiens, UniProt O00329); assay: Kinase inhibitory assay (ELISA kit); type: biochemical; conditions: average of three independent replicates; read-out: IC50 ± SD PI3K-δ
T1 construct: purchased Bioscience, USA #40628
Method: EGFR (catalog #40321), CDK2 (catalog #79599), AKT (catalog #78038), PI3K-α (catalog #40639), β (catalog #79802), and δ (catalog #40628) kinase inhibitions were conducted using an ELISA kit in accordance with the manufacturer instructions from Bioscience, USA. To assess the inhibitory potency of compound 5 against the kinase activity, kinase inhibitory tests were carried out. The following calculation was used to compute the proportion that chemicals inhibited autophosphorylation: […]. Using the GraphPad prism7 program, the IC50 was calculated using the curves of percentage inhibition of five concentrations of each chemical.

MCF-7 cells [2] = assay: Wound-healing assay (scratch assay); type: cell-based; conditions: MCF-7, treated at IC50 of compound, 48 h, mean ± SD
Method: The wound-healing test was mentioned in previous research. Six-well plates containing starvation media were filled with four […] MCF-7 cells per well, and the plates were subsequently incubated at 37 °C for the whole night. A sterile 1 mL pipette tip was used to generate a scratch of the cell monolayer once it was established the following day that the cells had adhered to the well and that cell confluence had reached 90%. Starvation media was used to clean the cells before they were removed from the plates. […] After 48 h, the medium was immediately changed to PBS, the wound gap was examined, and cells—both control and treated—were captured on camera with a digital camera attached to an Olympus microscope. The region where the wound closes was measured.

MCF-7 cells [3] = assay: Annexin V/PI staining flow cytometry (apoptosis/necrosis); type: cell-based; conditions: MCF-7, treated at IC50, 48 h
Method: (§1) Annexin V/PI staining and cell cycle analysis […] MCF-7 cells were added to 6-well culture plates, which were then placed in the incubator for the night. […] Following that, PBS was rinsed with ice-cold water before cells and media supernatants were gathered. The cells were then treated with “Annexin V-FITC solution (1:100) and propidium iodide (PI)” at a concentration of 10 µg/mL for 30 min in the dark after being suspended in […] of annexin-binding buffer solution, which was composed of 25 mM CaCl2, 1.4 M NaCl, and 0.1 M Hepes/NaOH, pH 7.4. Then, labeled cells were collected using the Cytoflex FACS system. The data were assessed using the cytExpert program.

MCF-7 cells [4] = assay: DNA content flow cytometry (cell cycle analysis); type: cell-based; conditions: MCF-7, treated at IC50, 48 h
Method: as §1

AKT-1 = target: T2, AKT-1 (Homo sapiens, UniProt P31749); assay: Kinase inhibitory assay (ELISA kit); type: biochemical; conditions: average of three independent replicates; read-out: IC50 ± SD AKT-1
T2 construct: purchased Bioscience, USA #78038
Method: (§2) The following calculation was used to compute the proportion that chemicals inhibited autophosphorylation: […]. Using the GraphPad prism7 program, the IC50 was calculated using the curves of percentage inhibition of five concentrations of each chemical.

CDK2 = target: T3, CDK2 (Homo sapiens, UniProt P24941); assay: Kinase inhibitory assay (ELISA kit); type: biochemical; conditions: average of three independent replicates; read-out: IC50 ± SD CDK2
T3 construct: purchased Bioscience, USA #79599
Method: as §2

EGFR = target: T4, EGFR (Homo sapiens, UniProt P00533); assay: Kinase inhibitory assay (ELISA kit); type: biochemical; conditions: average of three independent replicates; read-out: IC50 ± SD EGFR
T4 construct: purchased Bioscience, USA #40321
Method: as §2

PI3K-α = target: T5, PI3K-α (Homo sapiens, UniProt P42336); assay: Kinase inhibitory assay (ELISA kit); type: biochemical
T5 construct: purchased Bioscience, USA #40639
Method: as §2

PI3K-β = target: T6, PI3K-β (Homo sapiens, UniProt P42338); assay: Kinase inhibitory assay (ELISA kit); type: biochemical; conditions: average of three independent replicates; read-out: IC50 ± SD PI3K-β
T6 construct: purchased Bioscience, USA #79802
Method: as §2

[5] = tested on: Solid Ehrlich carcinoma (SEC); assay: In vivo antitumor activity in SEC-bearing mice; design: species or system Swiss albino mice; conditions: IP, 5 mg/kg; for solid tumor mass: SEC control 398.1 mg; for tumor proliferation inhibition (TIR%): TIR% = C − T/C × 100
Method: The Suez Canal University Research Ethics Committee gave the experimental procedure their seal of approval (approval number REC219/2023, Faculty of Science, Suez Canal University). The full, detailed methodology is supported in the Supplementary Materials.
Animals and tumor cell line
Adult female Swiss albino mice purchased from Theodor Bilharzia Research Institute, Giza, Egypt, with an average body weight of (18-23) g was used. Mice were housed under constant conditions of 12 h light/dark cycle in a […], with free access to standard laboratory mice food and water .All procedures related to care and maintenance of the animals were performed according to the international guiding principles for animal research and approved by Faculty of Science, Suez Canal University bioethics and animal ethics committee (Approval […]
Solid Ehrlich carcinoma (SEC) were got from the National Cancer Institute (Cairo University, Egypt). The tumor cell line was proliferated in mice through serial intraperitoneal (I.P.) transplantation of a volume of 0.2 mL physiological saline contains 1 × 10^6 viable cells for 24 h. SEC cells were collected 7 days after I.P. implantation. The harvested cells were diluted with saline to obtain a concentration of 5 × 10^6 viable SEC cells/mL. A volume of 0.2 mL saline contains 1 × 10^6 SEC cells that were I.P. implanted into each normal mouse. SEC cells (1 × 10^6 tumor cells/mouse) were implanted subcutaneously into the right thigh of the hind limb.
The experimental animals were randomly divided into four groups. Group 1 served as the normal saline control (5 mL/kg B.Wt., I.P.). Group 2 served as the SEC control (1 × 10^6 cells/mouse). Group 3 served as the compound-treated group (5 mg/kg B.Wt., I.P.).
Group 4 received the standard anticancer drug of Doxorubicin (DOX) (5 mg/kg BW, I.P.) and is considered as a reference control. Body weight and survival were recorded daily until the 24th day in both treated and control groups. At the end of experiment, the blood of each group was collected under light anesthesia for estimation of hematological and biochemical assays. The anesthetized animals were then sacrificed for evaluation of the antitumor activity and histopathological examination.
It includes tumor volume, weight, and tumor inhibition ration (TIR%). Time interval measurements of tumor volume using digital Vernier caliper (Tricle Brand, Shanghai, […]
China). Measure tumor length and width using clipper and then calculate tumor volume using formulations V = (L x W x W)/2, where V is tumor volume, W is tumor width, L is […]
tumor length. […]

T5 sequence (P42336 whole entry): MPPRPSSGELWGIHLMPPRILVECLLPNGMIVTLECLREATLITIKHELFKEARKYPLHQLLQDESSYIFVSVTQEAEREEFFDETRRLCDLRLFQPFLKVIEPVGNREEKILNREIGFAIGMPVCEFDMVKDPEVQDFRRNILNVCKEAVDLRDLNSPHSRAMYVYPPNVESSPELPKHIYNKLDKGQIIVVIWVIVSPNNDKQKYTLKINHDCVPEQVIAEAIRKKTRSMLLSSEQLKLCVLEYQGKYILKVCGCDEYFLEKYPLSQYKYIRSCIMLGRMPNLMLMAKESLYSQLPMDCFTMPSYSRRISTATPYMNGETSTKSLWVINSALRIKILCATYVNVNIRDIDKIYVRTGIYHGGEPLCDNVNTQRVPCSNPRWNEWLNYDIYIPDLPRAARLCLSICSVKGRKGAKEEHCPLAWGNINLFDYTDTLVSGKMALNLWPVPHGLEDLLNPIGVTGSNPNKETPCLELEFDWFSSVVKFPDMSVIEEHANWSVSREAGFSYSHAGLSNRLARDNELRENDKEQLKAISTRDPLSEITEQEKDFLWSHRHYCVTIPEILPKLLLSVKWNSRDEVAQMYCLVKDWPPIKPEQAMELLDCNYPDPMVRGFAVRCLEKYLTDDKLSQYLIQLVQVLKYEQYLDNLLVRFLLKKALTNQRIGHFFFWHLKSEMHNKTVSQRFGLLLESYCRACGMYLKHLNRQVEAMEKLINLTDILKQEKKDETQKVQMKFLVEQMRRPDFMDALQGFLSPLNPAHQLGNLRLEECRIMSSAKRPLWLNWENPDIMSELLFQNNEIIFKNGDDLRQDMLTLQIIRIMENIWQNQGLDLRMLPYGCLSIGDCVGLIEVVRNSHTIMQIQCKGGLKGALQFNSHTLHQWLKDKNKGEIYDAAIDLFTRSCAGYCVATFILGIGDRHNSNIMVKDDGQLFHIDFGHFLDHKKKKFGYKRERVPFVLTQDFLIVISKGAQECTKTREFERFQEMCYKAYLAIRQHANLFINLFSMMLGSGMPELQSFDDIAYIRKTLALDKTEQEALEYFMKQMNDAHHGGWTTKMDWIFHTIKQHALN
T5 sequence (P27986 whole entry partner): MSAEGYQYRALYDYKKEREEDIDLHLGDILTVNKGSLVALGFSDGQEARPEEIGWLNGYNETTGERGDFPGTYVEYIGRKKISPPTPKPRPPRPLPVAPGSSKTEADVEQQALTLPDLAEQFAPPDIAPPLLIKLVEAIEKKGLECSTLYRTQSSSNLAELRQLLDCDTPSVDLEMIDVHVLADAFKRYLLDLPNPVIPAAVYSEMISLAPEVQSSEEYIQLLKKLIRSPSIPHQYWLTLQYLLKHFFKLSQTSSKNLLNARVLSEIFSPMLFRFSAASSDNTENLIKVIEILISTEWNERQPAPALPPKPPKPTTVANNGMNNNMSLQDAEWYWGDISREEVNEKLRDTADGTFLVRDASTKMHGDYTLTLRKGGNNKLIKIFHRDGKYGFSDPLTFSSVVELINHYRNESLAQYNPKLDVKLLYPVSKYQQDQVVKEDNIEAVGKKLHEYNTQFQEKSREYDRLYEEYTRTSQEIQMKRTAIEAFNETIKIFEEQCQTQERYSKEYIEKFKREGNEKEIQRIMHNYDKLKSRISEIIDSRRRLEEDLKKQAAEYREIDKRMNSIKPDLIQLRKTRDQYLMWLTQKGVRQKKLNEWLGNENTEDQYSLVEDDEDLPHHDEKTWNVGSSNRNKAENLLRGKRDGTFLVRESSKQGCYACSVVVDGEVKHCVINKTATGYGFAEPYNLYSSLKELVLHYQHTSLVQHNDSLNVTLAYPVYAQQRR
T1 sequence (O00329 whole entry): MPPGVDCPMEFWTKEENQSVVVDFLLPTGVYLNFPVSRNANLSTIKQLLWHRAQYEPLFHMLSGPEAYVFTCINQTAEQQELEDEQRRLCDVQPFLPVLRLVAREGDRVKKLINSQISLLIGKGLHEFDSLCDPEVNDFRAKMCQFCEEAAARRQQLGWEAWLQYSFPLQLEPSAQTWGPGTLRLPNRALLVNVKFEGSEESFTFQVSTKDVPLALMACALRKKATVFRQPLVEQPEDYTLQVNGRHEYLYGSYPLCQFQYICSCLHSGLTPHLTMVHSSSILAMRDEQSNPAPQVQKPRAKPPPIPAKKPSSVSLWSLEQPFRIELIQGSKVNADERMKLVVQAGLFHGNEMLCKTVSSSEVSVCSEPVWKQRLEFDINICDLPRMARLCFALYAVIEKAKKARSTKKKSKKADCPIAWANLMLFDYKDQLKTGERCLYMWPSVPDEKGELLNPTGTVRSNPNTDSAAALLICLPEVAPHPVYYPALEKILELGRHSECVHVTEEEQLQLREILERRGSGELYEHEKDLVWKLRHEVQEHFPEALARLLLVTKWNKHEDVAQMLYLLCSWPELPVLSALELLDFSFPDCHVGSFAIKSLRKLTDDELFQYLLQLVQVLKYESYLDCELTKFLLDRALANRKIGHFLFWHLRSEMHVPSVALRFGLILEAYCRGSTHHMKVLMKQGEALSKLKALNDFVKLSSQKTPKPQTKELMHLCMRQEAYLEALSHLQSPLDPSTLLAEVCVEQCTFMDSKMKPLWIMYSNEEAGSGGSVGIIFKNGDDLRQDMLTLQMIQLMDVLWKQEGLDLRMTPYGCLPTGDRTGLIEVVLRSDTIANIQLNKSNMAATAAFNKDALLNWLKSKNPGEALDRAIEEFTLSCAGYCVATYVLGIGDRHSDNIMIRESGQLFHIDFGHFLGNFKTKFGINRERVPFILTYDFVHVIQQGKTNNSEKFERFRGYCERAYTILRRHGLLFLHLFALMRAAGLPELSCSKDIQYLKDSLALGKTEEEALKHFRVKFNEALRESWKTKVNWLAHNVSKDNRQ
T1 sequence (P27986 whole entry partner): as the sequence (P27986 whole entry partner) above
T2 sequence (P31749 whole entry): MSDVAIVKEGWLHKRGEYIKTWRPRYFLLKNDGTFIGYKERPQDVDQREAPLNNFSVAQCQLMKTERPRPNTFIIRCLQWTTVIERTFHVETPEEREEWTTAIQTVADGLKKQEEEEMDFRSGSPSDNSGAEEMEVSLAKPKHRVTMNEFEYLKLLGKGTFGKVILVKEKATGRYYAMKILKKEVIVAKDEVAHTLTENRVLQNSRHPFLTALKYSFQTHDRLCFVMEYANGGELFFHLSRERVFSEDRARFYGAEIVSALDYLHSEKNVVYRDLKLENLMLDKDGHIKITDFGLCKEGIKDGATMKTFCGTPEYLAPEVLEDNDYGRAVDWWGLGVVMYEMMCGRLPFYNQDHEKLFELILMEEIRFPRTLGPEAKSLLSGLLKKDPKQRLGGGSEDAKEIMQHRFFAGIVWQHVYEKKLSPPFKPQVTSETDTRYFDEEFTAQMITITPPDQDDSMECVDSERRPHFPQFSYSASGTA
T4 sequence (P00533 25-1210): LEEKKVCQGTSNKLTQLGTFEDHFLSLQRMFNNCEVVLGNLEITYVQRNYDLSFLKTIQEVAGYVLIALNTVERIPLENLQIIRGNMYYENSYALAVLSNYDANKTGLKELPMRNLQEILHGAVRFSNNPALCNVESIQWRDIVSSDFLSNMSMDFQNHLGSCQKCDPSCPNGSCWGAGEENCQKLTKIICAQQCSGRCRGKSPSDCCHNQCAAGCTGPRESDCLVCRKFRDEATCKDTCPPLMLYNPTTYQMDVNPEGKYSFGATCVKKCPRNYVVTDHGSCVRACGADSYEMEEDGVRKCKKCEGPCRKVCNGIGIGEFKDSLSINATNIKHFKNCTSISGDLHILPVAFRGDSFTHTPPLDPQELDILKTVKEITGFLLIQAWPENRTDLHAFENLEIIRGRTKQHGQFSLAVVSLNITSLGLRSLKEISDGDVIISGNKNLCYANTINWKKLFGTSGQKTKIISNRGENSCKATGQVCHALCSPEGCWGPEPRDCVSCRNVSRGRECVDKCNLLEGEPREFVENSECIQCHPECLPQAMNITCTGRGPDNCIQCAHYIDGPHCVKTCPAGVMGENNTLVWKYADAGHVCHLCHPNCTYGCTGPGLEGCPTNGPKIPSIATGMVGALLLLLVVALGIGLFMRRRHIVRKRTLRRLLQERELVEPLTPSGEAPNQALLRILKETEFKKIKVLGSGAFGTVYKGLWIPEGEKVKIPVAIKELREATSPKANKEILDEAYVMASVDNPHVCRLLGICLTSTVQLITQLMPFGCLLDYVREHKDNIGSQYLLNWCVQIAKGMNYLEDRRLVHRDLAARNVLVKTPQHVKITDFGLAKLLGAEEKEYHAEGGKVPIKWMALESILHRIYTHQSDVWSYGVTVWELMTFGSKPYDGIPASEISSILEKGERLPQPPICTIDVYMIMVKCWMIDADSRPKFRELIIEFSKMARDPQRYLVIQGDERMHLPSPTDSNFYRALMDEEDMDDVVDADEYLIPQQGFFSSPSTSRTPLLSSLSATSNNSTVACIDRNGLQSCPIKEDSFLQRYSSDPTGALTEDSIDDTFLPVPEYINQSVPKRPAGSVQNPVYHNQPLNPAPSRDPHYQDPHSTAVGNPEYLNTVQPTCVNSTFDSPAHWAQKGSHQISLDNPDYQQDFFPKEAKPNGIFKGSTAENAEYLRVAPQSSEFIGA

SMILES | IC50 ([1]; Homo sapiens, MCF7, 48 h) | melting point | %Closure, MCF-7 (wound closure) (MCF-7 cells [2]) | Annexin V/PI Staining Early (early apoptosis) (MCF-7 cells [3]) | Annexin V/PI Staining Late (late apoptosis) (MCF-7 cells [3]) | Annexin V/PI Staining Necrosis (MCF-7 cells [3]) | Annexin V/PI Staining Total (total cell death) (MCF-7 cells [3]) | DNA Content %G0-G1 (MCF-7 cells [4]) | DNA Content %G2/M (MCF-7 cells [4]) | DNA Content %Pre-G1 (MCF-7 cells [4]) | DNA Content %S (MCF-7 cells [4]) | further results
CCOC(=O)c1[nH]c2ccccc2c1C=O [Compound 1, ethyl 3-formyl-1H-indole-2-carboxylate] | 19.7 ± 2.31 µM | – | – | – | – | – | – | – | – | – | – | –
CCOC(=O)c1[nH]c2ccccc2c1/C=N/NC(N)=S [Compound 3, Ethyl (E)-3-((2-carbamothioylhydrazineylidene)methyl)-1H-indole-2-carboxylate] | 9.42 ± 0.57 µM | 229 to 230 °C | – | – | – | – | – | – | – | – | – | IC50 [1]: 10.2 ± 0.53 µM
O=c1cc(N2CCOCC2)oc2c(-c3ccccc3)cccc12 [LY294002, reference compound] | – | – | – | – | – | – | – | – | – | – | – | IC50 (PI3K-δ): 0.85 ± 0.05 µM
CCOC(=O)c1[nH]c2ccccc2c1/C=N/N=C/c1c(C(=O)OCC)[nH]c2ccccc12 [Compound 5, Diethyl 3,3’-((1E,1’E)-hydrazine-1,2-diylidenebis(methaneylylidene))bis(1H-indole-2-carboxylate)] | 2.73 ± 0.14 µM | – | 48.88% and 48.8% | 7.11% | 22.24% | 9.91% | 39.26% | 39.07% | 4.74% | 39.26% | 56.2% and 56.19% | fold higher potency than reference drug staurosporine against MCF-7 [1]: 3 fold; apoptosis (apoptosis ratio, early + late) (MCF-7 cells [3]): 29.35%; IC50 (AKT-1): 0.602 ± 0.03 µM; IC50 (CDK2): 0.156 ± 0.01 µM; IC50 (EGFR): 0.058 ± 0.029 µM; IC50 (PI3K-α; average of three independent replicates, read-out: IC50 ± SD PI3K-α): 1.73 ± 0.1 µM; fold higher potency than LY294002 against PI3K-α (PI3K-α; versus LY294002): 4.92 fold; IC50 (PI3K-β): 2.27 ± 0.11 µM; IC50 (PI3K-δ): 2.68 ± 0.15 µM; tumor volume [5]: 56.4 mm^3; solid tumor mass [5]: 126.5 mg; tumor proliferation inhibition (TIR%) [5]: 46.9%
CCOC(=O)c1[nH]c2ccccc2c1/C=N/n1c(-c2cc3ccccc3[nH]2)n[nH]c1=S [Compound 8, Ethyl (E)-3-(((3-(1H-indol-2-yl)-5-thioxo-1,5-dihydro-4H-1,2,4-triazol-4-yl)imino)methyl)-1H-indole-2-carboxylate] | 4.38 ± 0.23 µM | – | 60.74% and 60.7% | 2.27% | 13.45% | 8.66% | 24.4% and 24.38% | 47.10% | 6.57% | 24.38% | 46.31% | fold higher potency than reference drug staurosporine against MCF-7 [1]: up to 1.9 fold; apoptosis (apoptosis ratio, early + late) (MCF-7 cells [3]): 15.72%
CCOC(=O)c1[nH]c2ccccc2c1/C=N/NC(N)=O [Compound 6, Ethyl (E)-3-((2-carbamoylhydrazineylidene)methyl)-1H-indole-2-carboxylate] | 10.2 ± 0.53 µM | 285 to 286 °C | – | – | – | – | – | – | – | – | – | IC50 [1]: 9.42 ± 0.57 µM
CCOC(=O)c1[nH]c2ccccc2c1/C=N/Nc1ccc([N+](=O)[O-])cc1 [Compound 10, Ethyl (E)-3-((2-(4-nitrophenyl)hydrazineylidene)methyl)-1H-indole-2-carboxylate] | 25.4 ± 1.54 µM | 270 to 271 °C | – | – | – | – | – | – | – | – | – | –
CCOC(=O)c1[nH]c2ccccc2c1/C=N/Nc1ccc([N+](=O)[O-])cc1[N+](=O)[O-] [Compound 12, Ethyl (E)-3-((2-(2,4-dinitrophenyl)hydrazineylidene)methyl)-1H-indole-2-carboxylate] | – | – | 51.85% and 51.8% | 4.59% | 17.44% | 15.02% | 37% and 37.05% | 59.33% | 2.55% | 37.05% | 38.10% | IC50 ([1]; Homo sapiens, MCF7): 7.03 ± 0.37 µM
O=c1[nH]cc(F)c(=O)[nH]1 [Compound 5-FU, 5-FU, reference compound] | – | – | – | – | – | – | – | – | – | – | – | tumor volume [5]: 43.7 mm^3; solid tumor mass [5]: 110 mg; tumor proliferation inhibition (TIR%) [5]: 58.8%
